Experimental data as given in patent US4341780A, “Substituted pyrido [1,2-a] pyrimidines useful as anti-allergic, anti-ulcer and anti-diabetic agents” (Farmitalia Carlo Erba S.p.A., priority 1979, dated 1982).

Columns and labels:
[1] = test system: passive cutaneous anaphylaxis (PCA); assay: IgE-mediated passive cutaneous anaphylaxis (PCA) test in rats, oral administration; type: in vivo; conditions: rat PCA, p.o., pretreatment time 15'; KB = dose reducing to one half the activity of the sensitizing serum; lower = more active
Description: The compounds of the invention have anti-allergic activity, and are therefore useful in the prevention and treatment of all the affections of allergic origin, e.g. bronchial asthma, allergic rhinitis, hay fever, urticaria and dermatosis. The anti-allergic activity of the compounds of the invention is shown, e.g., by the first that they are active in the passive cutaneous anaphylaxis (PCA) test in rats, according to Goose J. and Blair A. M. J. N. (Immunology, 16, 749, 1969).
The activity data are expressed in terms of KB defined as the dose of active compound capable of reducing to one half the activity of the serum used for the sensitization:
B=dose of antagonist compound expressed in mg/kg;
DR=dose ratio: antilogarithm of the distance between the Log dose effect functions of the scrum with and without antagonist (J. H. Gaddum et al, Exp. Physiol., 1955, 40, 49).
The KB is adopted here because this value is independent both of the dose of the drug and the reagin concentration used for the sensitization.
The lower the KB value, the higher the anti-allergic activity.
The anti-allergic activity was determined e.g. by the inhibition of the IgE-mediated PCA according to Goose J. and Blair A. M. J. N. (Immunology, 16, 749, 1969) using homocytotropic antibodies raised in rats following the method of Mota I., Immunology, 7, 681, (1964).
The tested compounds were administered per os (p.o) 15 minutes before the administration of the antigen: at least 6 rats were used for each dose.

[2] = approximate acute toxicity (LD50) in the mouse, per os; conditions: in vivo, po, single administration of increasing doses, measured on the seventh day
Description: For example, the approximate acute toxicity (LD50) of the compound 2-trans-(2-phenyl-ethenyl)-3-propyl-4-oxo-4H-pyrido(1,2-a)pyrimidine-7-carboxylic acid in the mouse, determined with single adminstration of increasing doses and measured on the seventh day of treatment is per os higher than 800 mg/kg. Analogous toxicity data have been found for the other compounds of the invention.

Compound | Anti-allergic activity KB [1] [mg/kg] | LD50 at 168 h [2] [mg/kg]
O=C(O)c1cc(=O)c2c(OCC(O)COc3cccc4oc(C(=O)O)cc(=O)c34)cccc2o1 [Disodium Cromoglycate, reference compound] | > 200 | –
CCCc1c(/C=C/c2ccccc2C)nc2ccc(C(=O)O)cn2c1=O [FCE 20099, 2-trans-[2-(2-methyl-phenyl)-ethenyl]-3-propyl-4-oxo-4H-pyrido[1,2-a]pyrimidine-7-carboxylic acid] | 2.02 | –
CCCc1c(/C=C/c2cccc(OC)c2)nc2ccc(C(=O)O)cn2c1=O [FCE 20183, 2-trans-[2-(3-methoxy-phenyl)-ethenyl]-3-propyl-4-oxo-4H-pyrido[1,2-a]pyrimidine-7-carboxylic acid] | 1.48 | –
CCCc1c(/C=C/c2ccccc2)nc2n(c1=O)C1CC1(C(=O)O)C=C2 (stereo not drawn) [FCE 20188, 2-trans-(2-phenyl-ethenyl)-3-propyl-6,7-methylen-4-oxo-4H-pyrido[1,2-a]pyrimidine-7-carboxylic acid] | 2.34 | –
CCCc1c(/C=C/c2cccc(OC)c2OC)nc2n(c1=O)C1CC1(C(=O)O)C=C2 (stereo not drawn) [FCE 20461, 2-trans-[2-(2,3-dimethoxy-phenyl)-ethenyl]-3-propyl-6,7-methylen-4-oxo-4H-pyrido[1,2-a]pyrimidine-7-carboxylic acid] | 1.22 | –
CCc1c(/C=C/c2cccc(OC)c2)nc2n(c1=O)C1CC1(C(=O)O)C=C2 (stereo not drawn) [FCE 20509, 2-trans-[2-(3-methoxy-phenyl)-ethenyl]-3-ethyl-6,7-methylen-4-oxo-4H-pyrido[1,2-a]pyrimidine-7-carboxylic acid] | 0.61 | –
CCCc1c(/C=C/c2ccccc2)nc2ccc(C(=O)O)cn2c1=O [K 13808, 2-trans-(2-phenyl-ethenyl)-3-propyl-4-oxo-4H-pyrido[1,2-a]pyrimidine-7-carboxylic acid] | 2.16 | > 800
CCc1c(/C=C/c2ccccc2)nc2n(c1=O)C1CC1(C(=O)O)C=C2 (stereo not drawn) [K 13830, 2-trans-(2-phenyl-ethenyl)-3-ethyl-6,7-methylen-4-oxo-4H-pyrido[1,2-a]pyrimidine-7-carboxylic acid] | 1.15 | –
